# Assay results taken from PubChem BioAssay (NCI).
#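 A five-concentration, 48-hour dose response in 96-well plates underlies each endpoint, interpolated linearly between surrounding concentrations. GI50 = concentration required for 50% inhibition of growth. TGI denotes the concentration required for complete inhibition of growth.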
# Assays:
# Assay in all cases: DTP human tumour cell line panel, 48 h
# [1] = test system: U251 CNS
# [2] = test system: UACC-257 melanoma
# [3] = test system: CAKI-1 renal
# [4] = test system: T-47D breast
# [5] = test system: MOLT-4 leukemia
# [6] = test system: BT-549 breast
# [7] = test system: 786-0 renal
# [8] = test system: M14 melanoma
# [9] = test system: HL-60(TB) leukemia
# [10] = test system: NCI/ADR-RES ovarian
# [11] = test system: A498 renal
# [12] = test system: SR leukemia
# [13] = test system: COLO 205 colon
# [14] = test system: HS 578T breast
# [15] = test system: SF-539 CNS
# [16] = test system: SF-268 CNS
# [17] = test system: SK-MEL-2 melanoma
# [18] = test system: SNB-19 CNS
# [19] = test system: HCC-2998 colon
# [20] = test system: SK-OV-3 ovarian
# [21] = test system: RPMI-8226 leukemia
# [22] = test system: HCT-116 colon
# [23] = test system: CCRF-CEM leukemia
# [24] = test system: UO-31 renal
# [25] = test system: MDA-MB-435
# [26] = test system: NCI-H23 lung
# [27] = test system: ACHN renal
# [28] = test system: SK-MEL-28 melanoma
# [29] = test system: K-562 leukemia
# [30] = test system: OVCAR-5 ovarian
# [31] = test system: HT29 colon
# [32] = test system: RXF 393 renal
# [33] = test system: IGROV1 ovarian
# [34] = test system: SNB-75 CNS
# [35] = test system: TK-10 renal
# [36] = test system: MALME-3M melanoma
# [37] = test system: NCI-H226 lung
# [38] = test system: OVCAR-4 ovarian
# [39] = test system: KM12 colon
# [40] = test system: UACC-62 melanoma
# [41] = test system: NCI-H522 lung
# [42] = test system: SF-295 CNS
# [43] = test system: OVCAR-8 ovarian
# [44] = test system: EKVX NSCLC
# [45] = test system: DU-145 prostate
# [46] = test system: NCI-H460 lung
# [47] = test system: HOP-62 NSCLC
# [48] = test system: MCF7 breast
# [49] = test system: LOX IMVI melanoma
# [50] = test system: OVCAR-3 ovarian
# [51] = test system: MDA-MB-231 breast
# [52] = test system: PC-3 prostate
# [53] = test system: SK-MEL-5 melanoma
# [54] = test system: A549 NSCLC
# [55] = test system: SW-620 colon
# [56] = test system: HOP-92 NSCLC
# [57] = test system: HCT-15 colon
smiles,measurement,setting,value
Cc1ccccc1NC(=O)NC(Oc1ccccc1)(C(F)(F)F)C(F)(F)F,TGI,[1],> 100 µM
same,TGI,[2],> 100 µM
same,TGI,[3],97.5 µM
same,TGI,[4],> 100 µM
same,TGI,[5],> 100 µM
same,TGI,[6],> 100 µM
same,TGI,[7],> 100 µM
same,TGI,[8],> 100 µM
same,TGI,[9],> 100 µM
same,TGI,[10],> 100 µM
same,TGI,[11],> 100 µM
same,TGI,[12],> 100 µM
same,TGI,[13],> 100 µM
same,TGI,[14],> 100 µM
same,TGI,[15],> 100 µM
same,TGI,[16],> 100 µM
same,TGI,[17],> 100 µM
same,TGI,[18],> 100 µM
same,TGI,[19],> 100 µM
same,TGI,[20],> 100 µM
same,TGI,[21],> 100 µM
same,TGI,[22],> 100 µM
same,TGI,[23],> 100 µM
same,TGI,[24],> 100 µM
same,TGI,[25],> 100 µM
same,TGI,[26],> 100 µM
same,TGI,[27],> 100 µM
same,TGI,[28],> 100 µM
same,TGI,[29],> 100 µM
same,TGI,[30],> 100 µM
same,TGI,[31],> 100 µM
same,TGI,[32],> 100 µM
same,TGI,[33],> 100 µM
same,TGI,[34],> 100 µM
Oc1ccc2ccccc2c1C=NCCCN=Cc1c(O)ccc2ccccc12,GI50,[1],3.8 µM
same,TGI,[1],15.2 µM
same,GI50,[35],24.4 µM
same,TGI,[35],> 100 µM
same,GI50,[2],21.7 µM
same,TGI,[2],> 100 µM
same,GI50,[36],6.96 µM
same,TGI,[36],29.7 µM
same,GI50,[3],15.7 µM
same,TGI,[3],49.5 µM
same,GI50,[37],0.829 µM
same,TGI,[37],12.9 µM
same,GI50,[4],6.66 µM
same,TGI,[4],43 µM
same,GI50,[38],35.9 µM
same,TGI,[38],> 100 µM
same,GI50,[5],10.3 µM
same,TGI,[5],56.9 µM
same,GI50,[6],18.5 µM
same,TGI,[6],47.8 µM
same,GI50,[7],17.4 µM
same,TGI,[7],40.7 µM
same,GI50,[39],15.1 µM
same,TGI,[39],36.2 µM
same,GI50,[8],7.94 µM
same,TGI,[8],23.1 µM
same,GI50,[9],24.1 µM
same,TGI,[9],> 100 µM
same,GI50,[10],14.6 µM
same,TGI,[10],49.4 µM
same,GI50,[40],4.27 µM
same,TGI,[40],16.8 µM
same,GI50,[13],15.9 µM
same,TGI,[13],31.1 µM
same,GI50,[14],8.05 µM
same,TGI,[14],36.7 µM
same,GI50,[15],17.8 µM
same,TGI,[15],40.8 µM
same,GI50,[16],16.3 µM
same,TGI,[16],> 100 µM
same,GI50,[41],4.91 µM
same,TGI,[41],41.5 µM
same,GI50,[17],12.6 µM
same,TGI,[17],37.2 µM
same,GI50,[18],14.7 µM
same,TGI,[18],> 100 µM
same,GI50,[42],9.96 µM
same,TGI,[42],42.1 µM
same,GI50,[20],24.8 µM
same,TGI,[20],67.5 µM
same,GI50,[21],4.11 µM
same,TGI,[21],31.1 µM
same,GI50,[43],32.4 µM
same,TGI,[43],> 100 µM
same,GI50,[44],17.3 µM
same,TGI,[44],> 100 µM
same,GI50,[22],10 µM
same,TGI,[22],31.4 µM
same,GI50,[45],35.3 µM
same,TGI,[45],> 100 µM
same,GI50,[46],9.35 µM
same,TGI,[46],> 100 µM
same,GI50,[47],22.6 µM
same,TGI,[47],47.4 µM
same,GI50,[48],17.1 µM
same,TGI,[48],> 100 µM
same,GI50,[23],5.26 µM
same,TGI,[23],56.5 µM
same,GI50,[24],8.4 µM
same,TGI,[24],52.4 µM
same,GI50,[25],10.8 µM
same,TGI,[25],71.2 µM
same,GI50,[49],6.89 µM
same,TGI,[49],19.4 µM
same,GI50,[26],3.13 µM
same,TGI,[26],13 µM
same,GI50,[27],5.73 µM
same,TGI,[27],34.9 µM
same,GI50,[50],3.31 µM
same,TGI,[50],14.8 µM
same,GI50,[28],15.8 µM
same,TGI,[28],> 100 µM
same,GI50,[51],11.6 µM
same,TGI,[51],30.2 µM
same,GI50,[30],28.4 µM
same,TGI,[30],81.4 µM
same,GI50,[52],21.6 µM
same,TGI,[52],> 100 µM
same,GI50,[53],4.61 µM
same,TGI,[53],16 µM
same,GI50,[31],19.7 µM
same,TGI,[31],63.3 µM
same,GI50,[32],21.8 µM
same,TGI,[32],86.2 µM
same,GI50,[33],28.1 µM
same,TGI,[33],> 100 µM
same,GI50,[54],32.1 µM
same,TGI,[54],> 100 µM
same,GI50,[55],12.1 µM
same,TGI,[55],61.8 µM
same,GI50,[56],8.93 µM
same,TGI,[56],59.9 µM
same,GI50,[57],5.13 µM
same,TGI,[57],28.5 µM
